Assay results reported in patent US9765075B2, “Substituted bridged urea analogs as sirtuin modulators” (GLAXOSMITHKLINE LLC, priority 2013, dated 2017).
Positions count from the first letter of the chain named.

Key:
Experiment in all cases: SIRT1 activation dose-response, OAcADPr assay with Ac-p53(W5) substrate
Type in all cases: biochemical
[1] = target: T1, full-length hSIRT1 I223A (Homo sapiens, UniProt Q96EB6, I223A); details: for EC50: hSIRT1 I223A, activation dose-response, Ac-p53(W5) substrate
T1 construct: The following point mutants of full-length hSIRT1 were generated; His6 (C); made in house
T1 sequence (Q96EB6 1-747 I223A): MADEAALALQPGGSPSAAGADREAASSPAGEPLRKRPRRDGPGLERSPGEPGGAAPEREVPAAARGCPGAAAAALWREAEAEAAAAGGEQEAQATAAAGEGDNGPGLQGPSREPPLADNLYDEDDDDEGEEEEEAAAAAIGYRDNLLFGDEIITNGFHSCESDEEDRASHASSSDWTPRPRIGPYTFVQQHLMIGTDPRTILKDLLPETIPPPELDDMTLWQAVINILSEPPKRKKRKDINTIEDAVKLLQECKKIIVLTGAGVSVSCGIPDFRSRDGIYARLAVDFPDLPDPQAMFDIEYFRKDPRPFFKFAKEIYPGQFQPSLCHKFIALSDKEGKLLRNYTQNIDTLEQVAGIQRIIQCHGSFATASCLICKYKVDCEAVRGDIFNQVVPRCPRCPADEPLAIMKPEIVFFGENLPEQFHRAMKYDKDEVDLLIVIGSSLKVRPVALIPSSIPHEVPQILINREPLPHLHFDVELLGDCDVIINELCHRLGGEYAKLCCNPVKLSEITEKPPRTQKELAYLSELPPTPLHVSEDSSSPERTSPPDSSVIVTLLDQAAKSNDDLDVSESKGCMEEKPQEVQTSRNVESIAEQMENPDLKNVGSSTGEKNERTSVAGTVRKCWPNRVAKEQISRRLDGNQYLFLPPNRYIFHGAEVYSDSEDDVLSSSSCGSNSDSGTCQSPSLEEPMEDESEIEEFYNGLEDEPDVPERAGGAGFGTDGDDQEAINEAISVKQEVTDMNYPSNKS
Description: (§1) SIRT1 activation and inhibition assays were run in reaction buffer with 0.05% BSA at 25° C. and analyzed using the OAcADPr assay. Enzyme and compound were pre-incubated for 20 minutes before addition of substrates. […] The dose-dependence of five compounds was tested and the fold-activation data were described by Eq. 1
(§2) [formula] where vx/v0 is the ratio of the reaction rate in the presence (vx) versus absence (v0) of activator (X), RVmax is the relative velocity at infinite activator concentration, EC50 is the concentration of activator required to produce one-half RVmax and b is the minimum value of vx/v0.

[2] = target: T2, full-length hSIRT1 Q222A (Homo sapiens, UniProt Q96EB6, Q222A); details: for EC50: hSIRT1 Q222A, activation dose-response, Ac-p53(W5) substrate
T2 construct: The following point mutants of full-length hSIRT1 were generated; made in house
T2 sequence (Q96EB6 1-747 Q222A): T1 sequence (Q96EB6 1-747 I223A) with Q222A, A223I
Description: as §1, §2

[3] = target: T3, full-length hSIRT1 N226A (Homo sapiens, UniProt Q96EB6, N226A); details: for EC50: hSIRT1 N226A, activation dose-response, Ac-p53(W5) substrate
T3 construct: The following point mutants of full-length hSIRT1 were generated; His6 (C); made in house
T3 sequence (Q96EB6 1-747 N226A): T1 sequence (Q96EB6 1-747 I223A) with A223I, N226A
Description: as §1, §2

SMILES | EC50 fold shift (mutant EC50/wild-type EC50) [1] | RVmax fold shift = (wild-type RVmax−1)/(mutant RVmax−1) [1] | EC50 [1] [nM] | EC50 fold shift (mutant EC50/wild-type EC50) [2] | RVmax fold shift = (wild-type RVmax−1)/(mutant RVmax−1) [2] | EC50 [2] [nM] | EC50 fold shift (mutant EC50/wild-type EC50) [3] | RVmax fold shift = (wild-type RVmax−1)/(mutant RVmax−1) [3] | EC50 [3] [nM]
Cc1cnc2c(NC(=O)N3c4nc(-c5cccc(C(F)(F)F)c5)ccc4N4CC[C@H]3C4)cccc2n1 [Example 8] | 4.91 | 0.97 | 2360 | 1.07 | 1.22 | 510 | 2.15 | 1.34 | 1030
O=C(Nc1ccccn1)N1c2nc(-c3cccc(C(F)(F)F)c3)ccc2N2CC[C@H]1C2 [Example 7] | 2.51 | 6.90 | 5510 | 0.91 | 0.98 | 2010 | 1.78 | 1.32 | 3920
